Reference: patent US20230113761A1, “METHOD AND COMPOSITION FOR MIMICKING BIOLOGICAL BENEFITS OF CALORIC RESTRICTION BY ADMINISTRATION OF B-AMINOISOBUTYRIC ACID” (NANJING NUTRABUILDING BIO-TECH CO., LTD., priority 2021, published 2023)

Assays:
[1] = Body weight and body composition (fat mass, lean mass, free water) of high-fat diet mice during 8 weeks of feeding intervention; format: in vivo; settings: for fat mass: FIG. 2
Procedure: (§1) Mice were divided into groups and named after the diet they consumed. Group A mice were fed ad libitum (control), Group B mice were on high-fat diet (HFD), Group C mice were fed restricted amount of the HFD diet to achieve caloric restriction (HFD+CR), and Group D mice were fed high-fat diet and supplemented with 150 mg/kg β-aminoisobutyric acid (HFD+BAIBA). All groups of mice were housed individually, and fed for months of interventions and had free access to water. Health status was monitored during the intervention.
(§2) The four groups of mice were fed for eight weeks, body weight was measured weekly, and body fat mass, lean mass and free water mass were also measured by Body Composition Analyzer to monitor body composition every week. At the end of 8 weeks of treatment, blood was collected for each group of mice, and parameters such as total cholesterol (TCHO), triglyceride (TG), low-density lipoprotein (LDL) and high-density lipoprotein (HDL) were detected. Data were collected and subject to statistical analysis.

[2] = Blood lipid parameters (TCHO, TG, LDL, HDL) of high-fat diet mice after 8 weeks of treatment; format: in vivo; settings: group D (HFD+BAIBA, 150 mg/kg) vs group B (HFD)
Procedure: as §1, §2

In the case of `CC(CN)C(=O)O` (stereo not drawn) [BAIBA, β-aminoisobutyric acid], the fat mass ([1]; group D (HFD+BAIBA, 150 mg/kg) vs group B (HFD), 8 weeks, Body Composition Analyzer) is reported as “decreased compared to group B (HFD)”, the free water content ([1]; group D (HFD+BAIBA, 150 mg/kg) vs group B (HFD), 8 weeks, FIG. 4) is reported as “significantly higher than that in group B (HFD)” and the lean mass ([1]; group D (HFD+BAIBA, 150 mg/kg) vs group C (HFD+CR), by the 8th week, FIG. 3) is reported as “significantly more than that of group C (HFD+CR)”. For the same compound, the fat mass ([1]; group D (HFD+BAIBA, 150 mg/kg) vs group C (HFD+CR), from week 5 of feeding intervention) was “less fat mass than group C (HFD+CR)”, the body weight ([1]; mice on high-fat diet supplemented with 150 mg/kg BAIBA (group D) vs group B (HFD), 8 weeks, measured weekly, FIG. 1) was “significantly lower than that of group B (HFD)” and the “total cholesterol (TCHO) level” value ([2]; FIG. 5) was “significantly lower than that of group B (HFD) and close to that of group C”. The “triglyceride (TG) level” value ([2]; FIG. 6) was “significantly lower than that of group B (HFD) and close to that of group C”, the “low-density lipoprotein (LDL) level” value ([2]; FIG. 7) was “significantly lower than that of group B (HFD)” and the “high-density lipoprotein (HDL) level” value ([2]; four groups not significantly different, FIG. 8) was “higher HDL levles compared to group B (HFD)”.
